How the values were obtained:
Parastagonospora nodorum = Parastagonospora nodorum (PARANO) spore growth inhibition in liquid medium, 96-well microtiter plate, OD 600; assay type: cell-based; settings: spore suspension in PDB liquid medium, 18° C., 5-6 days, OD at 600, read-out: control compared to the untreated check
Protocol: Potato dextrose (PDB) liquid medium (Difco) containing a PARANO (10^5 spores/ml) spore suspension was prepared. For the inhibition assay, each test compound was solved in dimethyl sulfoxide. 100 μl of the test compound in media-solution was added to a 96-well microtiter plate, consequently, the same volume (100 μl) of spore suspension was added to the well making the final test concentrations and the plate was incubated at 18° C. for 5-6 days. The growth inhibition was evaluated by measuring the OD at 600. Percent inhibition was calculated with the below formula: […]

Phakopsora pachyrhizi = Phakopsora pachyrhizi test on soybean, preventive, greenhouse; assay type: in vivo; settings: preventive spray on soybean, inoculated one day after treatment, read-out: control (efficacy, disease severity) compared to the untreated check
Protocol: The respective compound was dissolved in 2% dimethyl sulfoxide/acetone and then mixed with water containing emulsifier to the calibrated spray volume of 30 mL. Each spray solution was poured into a spray bottle for further application.
To test the preventive activity of a compound, healthy young soybean plants, raised in the greenhouse, were sprayed with the active compound preparation at the stated application rate inside the spray cabinets using hollow cone nozzles. One day after treatment, the plants were inoculated with a conidial suspension containing 2×10^5 Phakopsora pachyrhizi inoculum. The inoculated plants were then kept in a greenhouse chamber at 22-24° C. temperature and 80-90% relative humidity for disease expression.

Pyricularia oryzae = assay: microbe, parasite or virus in culture; assay type: cell-based; settings: 168 h, read-out: control compared to the untreated check

| Compound | inhibition of growth at 300 ppm (Parastagonospora nodorum) [%] | pest or weed control at 500 ppm (Phakopsora pachyrhizi) [%] | inhibition of growth at 300 ppm (Pyricularia oryzae) [%] |
| --- | --- | --- | --- |
| Cn1ccc2cc(C(=O)NC(C)(C)Cc3ccc(C(C)(C)C)cc3)cnc21 [Compound 16, N-(1-(4-(tert-butyl)phenyl)-2-methylpropan-2-yl)-1-methyl-1H-pyrrolo[2,3-b]pyridine-5-carboxamide] | ≥ 70 | – | – |
| Cn1ccc2cc(C(=O)NC(C)(C)Cc3ccccc3Cl)cnc21 [Compound 17, N-(1-(2-chlorophenyl)-2-methylpropan-2-yl)-1-methyl-1H-pyrrolo[2,3-b]pyridine-5-carboxamide] | ≥ 70 | – | – |
| CC(C)c1ccc(CC(C)(C)NC(=O)c2cnc3c(ccn3C)c2)cc1 [Compound 18, N-(1-(4-isopropylphenyl)-2-methylpropan-2-yl)-1-methyl-1H-pyrrolo[2,3-b]pyridine-5-carboxamide] | ≥ 70 | – | – |
| Cn1ccc2cc(C(=O)NC(C)(C)Cc3cccc(Cl)c3)cnc21 [Compound 22, N-(1-(3-chlorophenyl)-2-methylpropan-2-yl)-1-methyl-1H-pyrrolo[2,3-b]pyridine-5-carboxamide] | – | ≥ 70 | – |
| Cn1ccc2cc(C(=O)NC(C)(C)Cc3ccc(Cl)c(Cl)c3)cnc21 [Compound 24, N-(1-(3,4-dichlorophenyl)-2-methylpropan-2-yl)-1-methyl-1H-pyrrolo[2,3-b]pyridine-5-carboxamide] | – | ≥ 70 | ≥ 70 |
| Cn1cc(Br)c2cc(C(=O)NC(C)(C)Cc3ccccc3F)cnc21 [Compound 58, 3-bromo-N-(1-(2-fluorophenyl)-2-methylpropan-2-yl)-1-methyl-1H-pyrrolo[2,3-b]pyridine-5-carboxamide] | – | ≥ 70 | ≥ 70 |
| Cn1cc(C2CC2)c2cc(C(=O)NC(C)(C)Cc3ccccc3F)cnc21 [Compound 60, 3-cyclopropyl-N-(1-(2-fluorophenyl)-2-methylpropan-2-yl)-1-methyl-1H-pyrrolo[2,3-b]pyridine-5-carboxamide] | ≥ 70 | – | – |
| CC(c1ccccc1)C(C)(C)NC(=O)c1cnc2c(c1)c(Cl)cn2C (centres unmarked) [Compound 87, 3-chloro-1-methyl-N-(2-methyl-3-phenylbutan-2-yl)-1H-pyrrolo[2,3-b]pyridine-5-carboxamide] | – | ≥ 70 | – |
| COc1nc2[nH]ccc2cc1C(=O)NC(C)(C)Cc1ccccc1 [Compound 88, 6-methoxy-N-(2-methyl-1-phenylpropan-2-yl)-1H-pyrrolo[2,3-b] pyridine-5-carboxamide] | – | ≥ 70 | – |
| Cc1nc2[nH]ccc2cc1C(=O)NC(C)(C)Cc1ccccc1 [Compound 93, 6-methyl-N-(2-methyl-1-phenylpropan-2-yl)-1H-pyrrolo[2,3-b] pyridine-5-carboxamide] | – | ≥ 70 | – |
| Cc1nc2[nH]ccc2cc1C(=O)NC(C)(C)Cc1ccc(F)cc1 [Compound 94, N-(1-(4-fluorophenyl)-2-methylpropan-2-yl)-6-methyl-1H-pyrrolo[2,3-b]pyridine-5-carboxamide] | – | ≥ 70 | – |
| Cc1cccc(CC(NC(=O)c2cnc3[nH]ccc3c2)C(C)(C)O)c1 (centres unmarked) [Compound 104, N-(3-hydroxy-3-methyl-1-(m-tolyl)butan-2-yl)-1H-pyrrolo[2,3-b]pyridine-5-carboxamide] | – | ≥ 70 | – |
| O=C(NC1(C(F)(F)F)CC1)c1cnc2ccsc2c1 [Compound 108, N-(1-(trifluoromethyl)cyclopropyl)thieno [3,2-b]pyridine-6-carboxamide] | ≥ 70 | – | ≥ 70 |
| C=CCC(C)(Cc1ccccc1F)NC(=O)c1cnc2ccsc2c1 (centres unmarked) [Compound 134, N-(1-(2-fluorophenyl)-2-methylpent-4-en-2-yl)thieno[3,2-b] pyridine-6-carboxamide] | – | ≥ 70 | – |
| Cc1ccc(F)cc1C(O)C(C)(C)NC(=O)c1cnc2c(c1)c(Br)cn2C (centres unmarked) [Compound 135, 3-bromo-N-(1-(5-fluoro-2-methylphenyl)-1-hydroxy-2-methylpropan-2-yl)-1-methyl-1H-pyrrolo[2,3-b]pyridine-5-carboxamide] | ≥ 70 | – | – |
| Cn1cc(Cl)c2cc(C(=O)NC3Cc4ccccc4C3)cnc21 [Compound 137, 3-chloro-N-(2,3-dihydro-1H-inden-2-yl)-1-methyl-1H-pyrrolo[2,3-b]pyridine-5-carboxamide] | – | ≥ 70 | – |
| CCC(O)(CC)C(NC(=O)c1cnc2c(c1)c(Cl)cn2C)c1ccccc1 (centres unmarked) [Compound 138, 3-chloro-N-(2-ethyl-2-hydroxy-1-phenylbutyl)-1-methyl-1H-pyrrolo[2,3-b] pyridine-5-carboxamide] | – | ≥ 70 | – |

| Compound | inhibition of growth at 300 ppm (Parastagonospora nodorum) [%] | pest or weed control at 500 ppm (Phakopsora pachyrhizi) [%] | inhibition of growth at 300 ppm (Pyricularia oryzae) [%] |
| --- | --- | --- | --- |
| Cn1cc(Cl)c2cc(C(=O)NC3(c4cc(Cl)cc(Cl)c4)CC3)cnc21 [Compound 140, 3-chloro-N-(1-(3,5-dichlorophenyl)cyclopropyl)-1-methyl-1H-pyrrolo[2,3-b]pyridine-5-carboxamide] | – | ≥ 70 | – |
| C=C(C)CC(C)(Cc1ccccc1F)NC(=O)c1cnc2c(c1)c(Br)cn2C (centres unmarked) [Compound 142, 3-bromo-N-(1-(2-fluorophenyl)-2,4-dimethylpent-4-en-2-yl)-1-methyl-1H-pyrrolo[2,3-b]pyridine-5-carboxamide] | – | ≥ 70 | – |
| Cc1cc(F)ccc1C(O)C(C)(C)NC(=O)c1cnc2ccsc2c1 (centres unmarked) [Compound 173, N-(1-(4-fluoro-2-methylphenyl)-1-hydroxy-2-methylpropan-2-yl)thieno[3,2-b] pyridine-6-carboxamide] | ≥ 70 | – | – |
| C=C(C)CC(C)(COc1ccccc1F)NC(=O)c1cnc2c(c1)c(Br)cn2C (centres unmarked) [Compound 176, 3-bromo-N-(1-(2-fluorophenoxy)-2,4-dimethylpent-4-en-2-yl)-1-methyl-1H-pyrrolo[2,3-b]pyridine-5-carboxamide] | ≥ 70 | – | ≥ 70 |
| C=C(C)CC(C)(COc1ccccc1F)NC(=O)c1cnc2c(c1)c(Cl)cn2C (centres unmarked) [Compound 179] | ≥ 70 | – | – |
| Cn1cc(Br)c2cc(C(=O)NC(C)(C)COC(=O)c3ccccc3C(F)(F)F)cnc21 [Compound 180, 2-(3-bromo-1-methyl-1H-pyrrolo[2,3-b]pyridine-5-carboxamido)-2-methylpropyl 2-(trifluoromethyl)benzoate] | – | – | ≥ 70 |
| Cc1ccccc1C(=O)OCC(C)(C)NC(=O)c1cnc2c(c1)c(Br)cn2C [Compound 185, 2-(3-bromo-1-methyl-1H-pyrrolo[2,3-b]pyridine-5-carboxamido)-2-methylpropyl 2-methylbenzoate] | – | – | ≥ 70 |
| Cc1ccc(COCC(C)(C)NC(=O)c2cnc3ccsc3c2)c(C)c1 [Compound 200, N-(1-((2,4-dimethylbenzyl)oxy)-2-methylpropan-2-yl)thieno[3,2-b] pyridine-6-carboxamide] | ≥ 70 | – | – |
| CC(C)(COc1ccnc(Cl)c1)NC(=O)c1cnc2ccsc2c1 [Compound 205, N-(1-((2-chloropyridin-4-yl)oxy)-2-methylpropan-2-yl)thieno[3,2-b] pyridine-6-carboxamide] | ≥ 70 | – | – |
| CC(C)(Cc1ccccc1)NC(=O)c1cc2c(nc1Cl)CCC2 [Compound 210, 2-chloro-N-(2-methyl-1-phenylpropan-2-yl)-6,7-dihydro-5H-cyclopenta[b]pyridine-3-carboxamide] | ≥ 70 | – | – |
| Cn1cc(Cl)c2cc(C(=O)NC(C)(C)COCc3cc(F)ccc3Cl)cnc21 [Compound 214, 3-chloro-N-(1-((2-chloro-5-fluorobenzyl)oxy)-2-methylpropan-2-yl)-1-methyl-1H-pyrrolo[2,3-b]pyridine-5-carboxamide] | – | – | ≥ 70 |
| COc1nc2c(cc1C(=O)NC(C)(C)Cc1ccccc1)CCC2 [Compound 217, 2-methoxy-N-(2-methyl-1-phenylpropan-2-yl)-6,7-dihydro-5H-cyclopenta[b]pyridine-3-carboxamide] | ≥ 70 | – | – |
| Cn1cc(Cl)c2cc(C(=O)NC(C)(C)COc3ccnc(Cl)c3)cnc21 [Compound 220, 3-chloro-N-(1-((2-chloropyridin-4-yl)oxy)-2-methylpropan-2-yl)-1-methyl-1H-pyrrolo[2,3-b]pyridine-5-carboxamide] | – | – | ≥ 70 |
| Cc1ccc(C)c(COCC(C)(C)NC(=O)c2cnc3c(ccn3C)c2)c1 [Compound 227, N-(1-((2,5-dimethylbenzyl)oxy)-2-methylpropan-2-yl)-1-methyl-1H-pyrrolo[2,3-b]pyridine-5-carboxamide] | ≥ 70 | – | – |
| COc1nc2c(cc1C(=O)NC(C)(C)COc1ccnc(Cl)c1)CCC2 [Compound 243, N-(1-((2-chloropyridin-4-yl)oxy)-2-methylpropan-2-yl)-2-methoxy-6,7-dihydro-5H-cyclopenta[b]pyridine-3-carboxamide] | ≥ 70 | – | – |
| COc1nc2c(cc1C(=O)NC1(Cc3ccccc3)CC1)CCC2 [Compound 245, N-(1-benzylcyclopropyl)-2-methoxy-6,7-dihydro-5H-cyclopenta[b]pyridine-3-carboxamide] | ≥ 70 | – | – |
| CON(C(=O)c1cnc2c(c1)CCC2)C(C)Cc1ccccc1F (centres unmarked) [Compound 253, N-(1-(2-fluorophenyl)propan-2-yl)-N-methoxy-6,7-dihydro-5H-cyclopenta[b]pyridine-3-carboxamide] | ≥ 70 | – | – |

Reference: patent publication US20250049036A1 (priority 2021, published 2025)
